Assay results taken from PMC12301034, “Design and Synthesis of Boronic Chalcones with Dual Anticancer and Anti-Inflammatory Activity” (Molecules, 2025).
Entries after “also recorded” stand apart in the source; their conditions may differ.

Key:
NOK-si cells = experiment: MTT cytotoxicity assay on NOK-si normal oral keratinocytes; type: cell-based; conditions: 24 h incubation
Excerpt: (§1) The SCC-25 (ATCC® CRL-1628™), Detroit-562 (ATCC® CCL-138™), and THP-1 (ATCC® TIB-202™) cells were purchased from Rio de Janeiro Cell Bank (Duque de Caxias, Brazil), and NOK-si was kindly provided by Prof. Carlos Rossa from the School of Dentistry—UNESP. All the cells were cultivated according to standard conditions. Human colorectal adenocarcinoma HCT116 cell lines (ATCC® CCL-247™) expressing p53 and its p53-null isogenic derivative (HCT116 p53^−/−) were provided by B. Vogelstein (The Johns Hopkins Kimmel Cancer Center, Baltimore, MD, USA).
Cells (NOK-si, SCC-25, and Detroit-562) were grown in a DMEM medium (Dulbecco’s Modified Eagle Medium), supplemented according to the needs of each lineage, as recommended by its cell banks, with 2 mM L-glutamine, 10% or 20% fetal bovine serum (FBS), 1% antibiotic–antimycotic solution (5 mg/mL penicillin, 5 mg/mL streptomycin, and 10 mg/mL neomycin), 4.5 g/L of glucose, and 3.7 g/L of sodium bicarbonate (NaHCO3). All cell lines were cultured in flasks at 37 °C in 5% carbon dioxide (CO2) and 95% of relative humidity. The assays were conducted between the third- and the seventh-cell passage, with sub-cultures every 3–4 days to maintain exponential growth. The cell viability was checked using the trypan blue dye exclusion assay for all experiments, where over 95% of the cells were viable at the beginning of the tests. NOK-si, SCC-25, and Detroit-562 were initially thawed and cultured in 25 cm^2 cell culture flasks. Cell growth was monitored using a microscope, and the culture medium was changed periodically. Upon reaching confluency, cell dissociation was achieved by adding 5 mL of trypsin (Sigma-Aldrich, St Louis, MO, USA) and incubating the bottles in a CO2 incubator for 10 min. Subsequently, the cells were transferred to 15 mL Falcon tubes and centrifuged at 2000 rpm for 10 min. Cell counting was performed using a Countess II FL automated cell counter (ThermoFischer, Waltham, MA, USA). The cells were seeded at a density of 30,000 cells per well in 96-well plates. The plates were then incubated at 37 °C in 5% CO2 for 24 h. Following this, test compounds were incubated for another 24 h at 10 different concentrations: 50, 25, 12.5, 6.25, 3.12, 1.56, 0.78, 0.39, 0.19, and 0.097 µg/mL. After the specified time, MTT reagent (3 mg/mL) (Sigma-Aldrich, St Louis, MO, USA) dissolved in phenol-free RPMI 1640 was added and incubated for 4 h. The formed MTT crystals were solubilized using 2-propanol P.A. (Sigma-Aldrich, St Louis, MO, USA) with agitation. Absorbance was read at 562 nm using an EZ Read 400 microplate reader (Biochrom, Cambridge, UK) and ADAP 2.0 Biochrom software (version 2.0). IC50 values and graphs were calculated using Excel and Prism software (version 10.4.1). The MTT assay results were evaluated for normality using the Shapiro–Wilk test, followed by one-way ANOVA with Tukey’s post hoc test at a significance level of 5%.

IL-6 = experiment: Anti-inflammatory assay, IL-6 in LPS-stimulated THP-1 cells (CBA); type: cell-based, human; conditions: 2 and 4 µg/mL, 24 h
Protocol: For this assay, THP-1 (BCRJ cód. 0234) cells were cultured in Roswell Park Memorial Institute (RPMI-1640, Sigma-Aldrich; Saint Louis, MO, USA) media supplemented with 2 mM L-glutamine, 1 mM sodium pyruvate, 1.50 g/L of sodium bicarbonate, and 10% fetal bovine serum. For obtaining Macrophage-like cells, 250,000 cells per well were plated in a 24-well cell culture plate. A total of 20 ng/mL of Forbol 12-miristato-13-acetato (PMA) was added to each well, and the cells were incubated for 48 h at 37 °C with 5% CO2. After the 48 h, the wells were washed with 1X PBS, and fresh RPMI-1640 media was added. The cells were then incubated for 24 h at 37 °C and 5% CO2. For the cell’s stimulations, after the 24 h, the well was washed with PBS and fresh RPMI1640 media without fetal bovine serum added. For the positive controls of the assay, 3 wells were stimulated with LPS (1 ng/µL) diluted in the same volume and media used for the drugs stimulation. Two different concentrations (2 and 4 µg/mL) were evaluated for each molecule, which were determined to be non-cytotoxic through a cell viability assay. After a 24 h period, the supernatant was removed and used in the cytokine quantification assay. A kit for inflammatory cytokines, BD® Cytometric Bead Array CBA Human Inflammatory, was employed for this assay, containing the following human cytokines: IL-8, IL-1β, IL-6, and TNF. […]

[1] = Partition coefficient (Log P), OECD 117 HPLC method
HCT116 p53^+/+ cells = experiment: SRB cytotoxicity assay on HCT116 p53+/+ cells; type: cell-based, human; conditions: Homo sapiens, HCT-116, 48 h of treatment
Excerpt: as §1
(§2) HCT p53^+/+ and HCT p53^−/− cell lines were seeded in 96-well plates, with a concentration of 5000 cells/well, and allowed to adhere overnight. Afterwards, they were treated with serial dilutions of the compounds for an additional 48 h (compounds were prepared at 30 mM, in DMSO, and tested with a starting concentration of 50μM and 15 μM). Cells passed then through a series of essential steps (fixation with 10% trichloroacetic acid, for 1 h at 4 °C; staining with 0.4% sulforhodamine B (SRB); wash with 1% acetic acid; and solubilization with 10 mM Tris-Base); subsequently, absorbance was measured at 510 nm in a microplate reader (Biotek Instruments Inc., Synergy, MX, USA). IC50 values were determined using GraphPad Prism software, Version 7.0 (La Jolla, CA, USA).

HCT116 p53^−/− cells = experiment: SRB cytotoxicity assay on HCT116 p53-/- cells; type: cell-based, human; conditions: Homo sapiens, HCT-116, 48 h of treatment
Excerpt: as §1, §2

- chromatographic logP [1]: 2.92
Compound: COc1cccc(C(=O)/C=C/c2cccc(B(O)O)c2)c1 [Compound 5, (E)-(3-(3-(3-methoxyphenyl)-3-oxoprop-1-en-1-yl)phenyl)boronic acid]
- NOK-si IC50 (NOK-si cells): 58900 ± 10630 nM
- CC50 (NOK-si cells; Keratinocyte, read-out: NOK-si IC50): 58900 nM
- reduction of IL-6 levels (IL-6): significantly reduced; also recorded: pronounced reduction
- IC50 (HCT116 p53^+/+ cells): 2500 ± 170 nM
- IC50 (HCT116 p53^−/− cells): 2160 ± 310 nM
